Each structure is given as a SMILES string. Converted amounts (≈) assume the structure as drawn. Positions of bridges follow the written chain, without caps; N, C: chain ends. Residues, ends and D or L forms follow the SMILES beside them.

Test [1] has as its system Vibrio alginolyticus.
Test [2] relates to Mycobacterium tuberculosis mc^26230.
The test system of test [3] is M. smegmatis mc^2155.
The subject of test [4] is P. aeruginosa.

As for `CC[C@H](C)[C@H](NC(=O)[C@@H](N)CCCNC(=N)N)C(=O)N[C@H]1CSSC[C@@H](C(=O)N[C@@H](Cc2c[nH]c3ccccc23)C(=O)N[C@@H](CC(N)=O)C(=O)N[C@H](C(=O)O)[C@@H](C)O)NC(=O)[C@H](CCCCN)NC(=O)[C@H](CCSC)NC(=O)[C@H](Cc2ccccc2)NC(=O)[C@@H]2CSSC[C@H](NC(=O)[C@H](C(C)C)NC(=O)[C@H](CCCNC(=N)N)NC(=O)[C@H](C(C)C)NC1=O)C(=O)N[C@@H](CCCNC(=N)N)C(=O)N[C@@H](CC(N)=O)C(=O)NCC(=O)N[C@@H](Cc1ccccc1)C(=O)N2` [V4, RIC1VRVC2RNGFC3FMKC4WNT] (H-RICVRVCRNGFCFMKCWNT-OH; disulfide 3-16, 7-12; N-terminus and C-terminus assumed), the “V. alginolyticus MIC” value in test [1] was 0.312 to 0.625 µM. Also, in test [2], the “M. tuberculosis mc^26230 MIC” value lay in the range of 7.5 to 7.9 µM. Further, in test [3], the “M. smegmatis mc^2155 MIC” value was in the range of 1.49 to 4.15 µM. Further, in test [4], the “P. aeruginosa MIC” value was 2.5 to 5 µM.
Regarding `CC[C@H](C)[C@@H]1NC(=O)[C@@H]2CSSC[C@H](NC(=O)[C@H](C(C)C)NC(=O)[C@H](CCCNC(=N)N)NC(=O)[C@H](C(C)C)NC(=O)[C@@H](NC(=O)[C@H](Cc3ccccc3)NC(=O)[C@@H](N)CCCNC(=N)N)CSSC[C@@H](C(=O)N[C@@H](Cc3c[nH]c4ccccc34)C(=O)N[C@@H](CC(N)=O)C(=O)N[C@H](C(=O)O)[C@@H](C)O)NC(=O)[C@H](CCCCN)NC(=O)[C@H](CCSC)NC1=O)C(=O)N[C@@H](CCCNC(=N)N)C(=O)N[C@@H](CC(N)=O)C(=O)NCC(=O)N[C@@H](CCCNC(=N)N)C(=O)N2` [V2, RFC1VRVC2RNGRC3IMKC4WNT] (H-RFCVRVCRNGRCIMKCWNT-OH; disulfide 3-16, 7-12; N-terminus and C-terminus assumed), the “V. alginolyticus MIC” value in test [1] fell in the range of 0.312 to 0.625 µM. Also, the “M. tuberculosis mc^26230 MIC” value in test [2] lay in the range of 19.7 to 30.0 µM. Also, the “M. smegmatis mc^2155 MIC” value in test [3] fell in the range of 0.72 to 2.95 µM. For the same compound, the “P. aeruginosa MIC” value in test [4] lay within 2.5 to 5 µM.
Consider `CSCC[C@@H]1NC(=O)[C@H](Cc2ccccc2)NC(=O)[C@@H]2CSSC[C@H](NC(=O)[C@H](C(C)C)NC(=O)[C@H](CCCNC(=N)N)NC(=O)[C@H](C(C)C)NC(=O)[C@@H](NC(=O)[C@@H](NC(=O)[C@H](CO)NC(=O)[C@@H](NC(=O)[C@H](C)NC(=O)[C@H](CCCCN)NC(=O)[C@@H](N)CCCNC(=N)N)C(C)C)[C@@H](C)O)CSSC[C@@H](C(=O)N[C@@H](Cc3c[nH]c4ccccc34)C(=O)N[C@@H](CC(N)=O)C(=O)N[C@H](C(=O)O)[C@@H](C)O)NC(=O)[C@H](CCCCN)NC1=O)C(=O)N[C@@H](CCCNC(=N)N)C(=O)N[C@@H](CC(N)=O)C(=O)NCC(=O)N[C@@H](Cc1ccccc1)C(=O)N2` [V7, RKAVSTC2VRVC3RNGFC4FMKCWNT] (H-RKAVSTCVRVCRNGFCFMKCWNT-OH; disulfide 7-20, 11-16 (inferred); N-terminus and C-terminus assumed), for which the “V. alginolyticus MIC” value in test [1] lay within 0.125 to 0.312 µM. For the same compound, the “M. tuberculosis mc^26230 MIC” value in test [2] was >30 µM. Further, the “M. smegmatis mc^2155 MIC” value in test [3] was in the range of 9.22 to 13.1 µM. Moreover, in test [4], the “P. aeruginosa MIC” value fell in the range of 2.5 to 5 µM.
For `CC[C@H](C)[C@@H]1NC(=O)[C@H](Cc2ccccc2)NC(=O)[C@H](CC(C)C)NC(=O)[C@@H]2CSSC[C@H](NC(=O)[C@H](CCCNC(=N)N)NC1=O)C(=O)N[C@@H](Cc1ccccc1)C(=O)N[C@@H](CCSC)C(=O)N[C@@H](CCCCN)C(=O)N[C@H](C(=O)N[C@@H](Cc1c[nH]c3ccccc13)C(=O)N[C@@H](CC(N)=O)C(=O)N[C@H](C(=O)O)[C@@H](C)O)CSSC[C@H](NC(=O)[C@H](Cc1ccccc1)NC(=O)[C@@H](N)CCCNC(=N)N)C(=O)N[C@@H](C(C)C)C(=O)N[C@@H](CCCNC(=N)N)C(=O)N[C@@H](C(C)C)C(=O)N2` [V5, RFC1VRVC2LFIRC3FMKC4WNT] (H-RFCVRVCLFIRCFMKCWNT-OH; disulfide 3-16, 7-12; N-terminus and C-terminus assumed), in test [1], the “V. alginolyticus MIC” value fell in the range of 0.625 to 1.25 µM. Further, in test [2], the “M. tuberculosis mc^26230 MIC” value lay within 5.3 to 7.9 µM. The “M. smegmatis mc^2155 MIC” value in test [3] lay within 3.06 to 8.40 µM. Further, in test [4], the “P. aeruginosa MIC” value was >20 µM.
As for `CC[C@H](C)[C@@H]1NC(=O)[C@@H]2CSSC[C@H](NC(=O)[C@H](C(C)C)NC(=O)[C@H](CCCNC(=N)N)NC(=O)[C@H](C(C)C)NC(=O)[C@@H](NC(=O)[C@@H](NC(=O)[C@@H](N)CCCNC(=N)N)[C@@H](C)CC)CSSC[C@@H](C(=O)N[C@@H](Cc3c[nH]c4ccccc34)C(=O)N[C@@H](CC(N)=O)C(=O)N[C@H](C(=O)O)[C@@H](C)O)NC(=O)[C@H](CCCCN)NC(=O)[C@H](CCSC)NC1=O)C(=O)N[C@@H](CCCNC(=N)N)C(=O)N[C@@H](CC(N)=O)C(=O)NCC(=O)N[C@@H](CCCNC(=N)N)C(=O)N2` [V3, RIC1VRVC2RNGRC3IMKC4WNT] (H-RICVRVCRNGRCIMKCWNT-OH; disulfide 3-16, 7-12; N-terminus and C-terminus assumed), the “V. alginolyticus MIC” value in test [1] is 0.625 to 1.25 µM. For the same compound, the “M. tuberculosis mc^26230 MIC” value in test [2] is 22.9 to 29.6 µM. The “M. smegmatis mc^2155 MIC” value in test [3] was 0.64 to 4.66 µM. The “P. aeruginosa MIC” value in test [4] lay within 2.5 to 5 µM.
`CC[C@H](C)[C@H](NC(=O)[C@@H](N)CCCNC(=N)N)C(=O)N[C@H]1CSSC[C@@H](C(=O)N[C@@H](Cc2c[nH]c3ccccc23)C(=O)N[C@@H](CC(N)=O)C(=O)N[C@H](C(=O)O)[C@@H](C)O)NC(=O)[C@H](CCCCN)NC(=O)[C@H](CCSC)NC(=O)[C@H](Cc2ccccc2)NC(=O)[C@@H]2CSSC[C@H](NC(=O)[C@H](C(C)C)NC(=O)[C@H](CCCNC(=N)N)NC(=O)[C@H](C(C)C)NC1=O)C(=O)N[C@@H](CCCNC(=N)N)C(=O)N[C@@H](CC(N)=O)C(=O)NCC(=O)N[C@@H](CCCNC(=N)N)C(=O)N2` [V6, RIC1VRVC2RNGRC3FMKC4WNT] (H-RICVRVCRNGRCFMKCWNT-OH; disulfide 3-16, 7-12; N-terminus and C-terminus assumed): the “V. alginolyticus MIC” value in test [1] was in the range of 0.125 to 0.312 µM. Moreover, in test [2], the “M. tuberculosis mc^26230 MIC” value was >30 µM. For the same compound, the “M. smegmatis mc^2155 MIC” value in test [3] was in the range of 1.27 to 2.96 µM. In test [4], the “P. aeruginosa MIC” value was >5 µM.
On to `CC[C@H](C)[C@H](NC(=O)[C@H](CCCNC(=N)N)NC(=O)[C@@H](NC(=O)[C@H](CS)NC(=O)[C@@H](NC(=O)[C@@H](N)CCCNC(=N)N)C(C)C)C(C)C)C(=O)N[C@@H](CS)C(=O)N[C@@H](CCCNC(=N)N)C(=O)N[C@@H](CC(N)=O)C(=O)NCC(=O)N[C@@H](CCCNC(=N)N)C(=O)N[C@@H](CS)C(=O)N[C@@H](Cc1ccc(O)cc1)C(=O)N[C@@H](CCCNC(=N)N)C(=O)N[C@@H](CCCNC(=N)N)C(=O)N[C@@H](CS)C(=O)N[C@@H](Cc1c[nH]c2ccccc12)C(=O)N[C@@H](CC(N)=O)C(=O)N[C@H](C(=O)O)[C@@H](C)O` [Linear unfolded analogue of Michelicin] (H-RVCVRICRNGRCYRRCWNT-OH; N-terminus and C-terminus assumed), for which the MIC (commonly the lowest concentration found to suppress growth) stood at 0.625 µM (≈ 1.51 µg/mL) in test [1] and 1.25 µM (≈ 3.02 µg/mL) in test [3].
Consider `CC(C)[C@@H]1NC(=O)[C@H](CCCNC(=N)N)NC(=O)[C@H](C(C)C)NC(=O)[C@@H](NC(=O)[C@@H](NC(=O)[C@@H](N)CCCNC(=N)N)C(C)C)CSSC[C@@H](C(=O)N[C@@H](Cc2c[nH]c3ccccc23)C(=O)N[C@@H](CC(N)=O)C(=O)N[C@H](C(=O)O)[C@@H](C)O)NC(=O)[C@H](CCCNC(=N)N)NC(=O)[C@H](CCCNC(=N)N)NC(=O)[C@H](Cc2ccc(O)cc2)NC(=O)[C@@H]2CSSC[C@H](NC1=O)C(=O)N[C@@H](CCCNC(=N)N)C(=O)N[C@@H](CC(N)=O)C(=O)NCC(=O)N[C@@H](CCCNC(=N)N)C(=O)N2` [V1, RVC1VRVC2RNGRC3YRRC4WNT] (H-RVCVRVCRNGRCYRRCWNT-OH; disulfide 3-16, 7-12; N-terminus and C-terminus assumed), for which the “V. alginolyticus MIC” value in test [1] lay in the range of 0.125 to 0.312 µM. In addition, the “M. tuberculosis mc^26230 MIC” value in test [2] fell in the range of 29.8 to 30.2 µM. For the same compound, in test [3], the “M. smegmatis mc^2155 MIC” value was 1.15 to 4.21 µM. Also, the “P. aeruginosa MIC” value in test [4] was in the range of 2.5 to 5 µM.
On to `CSCC[C@@H]1NC(=O)[C@H](Cc2ccccc2)NC(=O)[C@@H]2CSSC[C@H](NC(=O)[C@H](C(C)C)NC(=O)[C@H](CCCNC(=N)N)NC(=O)[C@H](C(C)C)NC(=O)[C@@H](NC(=O)[C@@H](NC(=O)[C@@H](N)CCCNC(=N)N)C(C)C)CSSC[C@@H](C(=O)N[C@@H](Cc3c[nH]c4ccccc34)C(=O)N[C@@H](CC(N)=O)C(=O)N[C@H](C(=O)O)[C@@H](C)O)NC(=O)[C@H](CCCCN)NC1=O)C(=O)N[C@@H](CCCNC(=N)N)C(=O)N[C@@H](CC(N)=O)C(=O)NCC(=O)N[C@@H](Cc1ccccc1)C(=O)N2` [V9, RVC1VRVC2RNGFC3FMKC4WNT] (H-RVCVRVCRNGFCFMKCWNT-OH; disulfide 3-16, 7-12; N-terminus and C-terminus assumed), for which, in test [1], the “V. alginolyticus MIC” value was in the range of 0.125 to 0.312 µM. Also, the “M. tuberculosis mc^26230 MIC” value in test [2] fell in the range of 5.1 to 9.1 µM. Also, in test [3], the “M. smegmatis mc^2155 MIC” value lay within 1.02 to 3.31 µM. Moreover, in test [4], the “P. aeruginosa MIC” value is 1.25 to 2.5 µM.
For `CC[C@H](C)[C@@H]1NC(=O)[C@H](CCCNC(=N)N)NC(=O)[C@H](C(C)C)NC(=O)[C@@H](NC(=O)[C@@H](NC(=O)[C@@H](N)CCCNC(=N)N)C(C)C)CSSC[C@@H](C(=O)N[C@@H](Cc2c[nH]c3ccccc23)C(=O)N[C@@H](CC(N)=O)C(=O)N[C@H](C(=O)O)[C@@H](C)O)NC(=O)[C@H](CCCCN)NC(=O)[C@H](CCSC)NC(=O)[C@H](Cc2ccccc2)NC(=O)[C@@H]2CSSC[C@H](NC1=O)C(=O)N[C@@H](CCCNC(=N)N)C(=O)N[C@@H](CC(N)=O)C(=O)NCC(=O)N[C@@H](Cc1ccccc1)C(=O)N2` [V8, RVC1VRIC2RNGFC3FMKC4WNT] (H-RVCVRICRNGFCFMKCWNT-OH; disulfide 3-16, 7-12; N-terminus and C-terminus assumed), the “V. alginolyticus MIC” value in test [1] lay within 0.125 to 0.312 µM. Also, the “M. tuberculosis mc^26230 MIC” value in test [2] is 7.3 to 11.9 µM. The “M. smegmatis mc^2155 MIC” value in test [3] lay within 0.72 to 3.92 µM. In test [4], the “P. aeruginosa MIC” value lay in the range of 1.25 to 2.5 µM.

Source of the values: patent publication US20250051403A1, “ANTIMICROBIAL PEPTIDES, VARIANTS AND CHEMICAL ANALOGUES THEREOF AND THEIR USES” (priority 2021, published 2025).
